Results from patent US20230183640A1, “METABOLIC INHIBITORS WITH EFFICACY FOR INHIBITING SULFIDE PRODUCTION IN HARSH ENVIRONMENTS” (MC (US) 3 LLC, priority 2020, published 2023).

Columns and labels:
Assay type in all cases: cell-based
[1] = tested on: Enterobacter aerogenes 13048; assay: Log (Growth) efficacy in anaerobic conditions, non-SRB bacteria
Description: (§1) Enumerations were done at each time point, which included 0 hour, 1 hour, 4 hours and 24 hours. Enumeration plates were made to determine the log growth in each dosed sample. For this process, enumeration plates were prepared by adding 180 μL fresh TSB. 20 μL was taken from each well of the challenge plates and transferred to the enumeration plates using a 20-200 μL multichannel pipette. Enumeration plates were mixed three times using the multichannel pipette and serial diluted down the plate tenfold (20 μL into 180 μL). This serial dilution process was repeated for all challenge plate rows giving a total of 6 enumeration plates. These enumeration plates were read after 24-hours and by counting the number of turbid wells in a row.
(§2) Klebsiella pneumoniae 13883, Enterobacter aerogenes 13048, Escherichia coli 8739, and Enterococcus faecalis 29212 cultures were made by adding one loop from a freezer stock to 10 mL of fresh Phenol Red Media. These were grown anaerobically at 30° C. for 24 hours.
(§3) Following the 24-hour incubation, each culture was diluted to 1:10 in fresh Phenol Red Media. Using these cultures, two deep well plates were prepared. Edge wells were not used due to their inherent variability and evaporation of the media. Each of the components were added at their respective concentrations for a final volume of 250 μL per well. In Table 9, the concentrations of the compound C1 used for the experiments are listed. Each experiment was done with at least three replicates for different treatments and non-treatment controls. Plates were then sealed with a titer-top and incubated at room temperature in anaerobic chamber. Enumerations were conducted at 0 hour, 1 hour, 4 hours, and 24 hours. The process for these enumerations was the same as that done for example 2; however, utilizing phenol red media instead of tryptic soy broth.

[2] = tested on: Enterococcus faecalis 29212; assay: as above
Description: as §1, §2, §3

Escherichia coli 8739 = assay: as above
Description: as §1, §2, §3

[3] = tested on: Klebsiella pneumoniae 13883; assay: as above
Description: as §1, §2, §3

[4] = tested on: various microorganism strains; assay: Comparative testing of C1 in aerobic and anaerobic conditions; settings: Examples 2 and 3
Description: Therefore, to further analyze the efficacy of compound C1, comparative testing was done in both aerobic and anaerobic conditions using additional bacteria cultures. For aerobic conditions testing, the following strains were used: Escherichia coli, Pseudomonas aeruginosa, Enterobacter aerogenes, and Klebsiella pneumoniae. For anaerobic testing, the following strains were used: Klebsiella pneumoniae, Enterobacter aerogenes, Escherichia coli, and Enterococcus faecalis.

O=C(CN1C(=O)c2cccc3cccc(c23)C1=O)NO [C1]
Log (Growth) ([1]; 0 hours, 15.625 PPM): 6.333
Log (Growth) ([1]; 0 hours, 31.25 PPM): 6.667
Log (Growth) ([1]; 0 hours, 62.5 PPM): 6.333
Log (Growth) ([1]; 0 hours, 125 PPM): 6.333
Log (Growth) ([1]; 0 hours, 250 PPM): 6.667
Log (Growth) ([1]; 0 hours, 500 PPM): 6.333
Log (Growth) ([1]; 1 hour, 15.625 PPM): 7.000
Log (Growth) ([1]; 1 hour, 31.25 PPM): 6.333
Log (Growth) ([1]; 1 hour, 62.5 PPM): 7.000
Log (Growth) ([1]; 1 hour, 125 PPM): 6.000
Log (Growth) ([1]; 1 hour, 250 PPM): 5.667
Log (Growth) ([1]; 1 hour, 500 PPM): 5.667
Log (Growth) ([1]; 4 hours, 15.625 PPM): 7.333
Log (Growth) ([1]; 4 hours, 31.25 PPM): 7.000
Log (Growth) ([1]; 4 hours, 62.5 PPM): 4.667
Log (Growth) ([1]; 4 hours, 125 PPM): 5.000
Log (Growth) ([1]; 4 hours, 250 PPM): 5.333
Log (Growth) ([1]; 4 hours, 500 PPM): 5.333
Log (Growth) ([1]; 24 hours, 15.625 PPM): 7.667
Log (Growth) ([1]; 24 hours, 31.25 PPM): 6.667
Log (Growth) ([1]; 24 hours, 62.5 PPM): 6.333
Log (Growth) ([1]; 24 hours, 125 PPM): 6.000
Log (Growth) ([1]; 24 hours, 250 PPM): 6.333
Log (Growth) ([1]; 24 hours, 500 PPM): 6.000
Log (Growth) ([2]; 0 hours, 15.625 PPM): 7.000
Log (Growth) ([2]; 0 hours, 31.25 PPM): 6.667
Log (Growth) ([2]; 0 hours, 62.5 PPM): 7.000
Log (Growth) ([2]; 0 hours, 125 PPM): 6.333
Log (Growth) ([2]; 0 hours, 250 PPM): 7.000
Log (Growth) ([2]; 0 hours, 500 PPM): 6.667
Log (Growth) ([2]; 1 hour, 15.625 PPM): 6.667
Log (Growth) ([2]; 1 hour, 31.25 PPM): 6.000
Log (Growth) ([2]; 1 hour, 62.5 PPM): 6.333
Log (Growth) ([2]; 1 hour, 125 PPM): 5.667
Log (Growth) ([2]; 1 hour, 250 PPM): 6.333
Log (Growth) ([2]; 1 hour, 500 PPM): 6.000
Log (Growth) ([2]; 4 hours, 15.625 PPM): 6.667
Log (Growth) ([2]; 4 hours, 31.25 PPM): 5.667
Log (Growth) ([2]; 4 hours, 62.5 PPM): 4.667
Log (Growth) ([2]; 4 hours, 125 PPM): 4.333
Log (Growth) ([2]; 4 hours, 250 PPM): 4.333
Log (Growth) ([2]; 4 hours, 500 PPM): 4.667
Log (Growth) ([2]; 24 hours, 15.625 PPM): 6.333
Log (Growth) ([2]; 24 hours, 31.25 PPM): 5.333
Log (Growth) ([2]; 24 hours, 62.5 PPM): 5.667
Log (Growth) ([2]; 24 hours, 125 PPM): 5.667
Log (Growth) ([2]; 24 hours, 250 PPM): 4.333
Log (Growth) ([2]; 24 hours, 500 PPM): 4.000
Log (Growth) (Escherichia coli 8739; 0 hours, 15.625 PPM): 7.000
Log (Growth) (Escherichia coli 8739; 0 hours, 31.25 PPM): 6.667
Log (Growth) (Escherichia coli 8739; 0 hours, 62.5 PPM): 6.667
Log (Growth) (Escherichia coli 8739; 0 hours, 125 PPM): 6.333
Log (Growth) (Escherichia coli 8739; 0 hours, 250 PPM): 6.000
Log (Growth) (Escherichia coli 8739; 0 hours, 500 PPM): 6.333
Log (Growth) (Escherichia coli 8739; 1 hour, 15.625 PPM): 7.000
Log (Growth) (Escherichia coli 8739; 1 hour, 31.25 PPM): 6.000
Log (Growth) (Escherichia coli 8739; 1 hour, 62.5 PPM): 6.333
Log (Growth) (Escherichia coli 8739; 1 hour, 125 PPM): 6.000
Log (Growth) (Escherichia coli 8739; 1 hour, 250 PPM): 6.000
Log (Growth) (Escherichia coli 8739; 1 hour, 500 PPM): 6.000
Log (Growth) (Escherichia coli 8739; 4 hours, 15.625 PPM): 6.667
Log (Growth) (Escherichia coli 8739; 4 hours, 31.25 PPM): 6.667
Log (Growth) (Escherichia coli 8739; 4 hours, 62.5 PPM): 5.333
Log (Growth) (Escherichia coli 8739; 4 hours, 125 PPM): 4.667
Log (Growth) (Escherichia coli 8739; 4 hours, 250 PPM): 5.000
Log (Growth) (Escherichia coli 8739; 4 hours, 500 PPM): 4.333
Log (Growth) (Escherichia coli 8739; 24 hours, 15.625 PPM): 6.000
Log (Growth) (Escherichia coli 8739; 24 hours, 31.25 PPM): 4.000
Log (Growth) (Escherichia coli 8739; 24 hours, 62.5 PPM): 2.667
Log (Growth) (Escherichia coli 8739; 24 hours, 125 PPM): 3.000
Log (Growth) (Escherichia coli 8739; 24 hours, 250 PPM): 4.000
Log (Growth) (Escherichia coli 8739; 24 hours, 500 PPM): 2.667
Log (Growth) ([3]; 0 hours, 15.625 PPM): 6.667
Log (Growth) ([3]; 0 hours, 31.25 PPM): 6.667
Log (Growth) ([3]; 0 hours, 62.5 PPM): 6.667
Log (Growth) ([3]; 0 hours, 125 PPM): 6.667
Log (Growth) ([3]; 0 hours, 250 PPM): 6.000
Log (Growth) ([3]; 0 hours, 500 PPM): 6.000
Log (Growth) ([3]; 1 hour, 15.625 PPM): 6.667
Log (Growth) ([3]; 1 hour, 31.25 PPM): 5.667
Log (Growth) ([3]; 1 hour, 62.5 PPM): 5.000
Log (Growth) ([3]; 1 hour, 125 PPM): 3.667
Log (Growth) ([3]; 1 hour, 250 PPM): 4.333
Log (Growth) ([3]; 1 hour, 500 PPM): 4.333
Log (Growth) ([3]; 4 hours, 15.625 PPM): 3.333
Log (Growth) ([3]; 4 hours, 31.25 PPM): 2.000
Log (Growth) ([3]; 4 hours, 62.5 PPM): 2.000
Log (Growth) ([3]; 4 hours, 125 PPM): 1.667
Log (Growth) ([3]; 4 hours, 250 PPM): 2.333
Log (Growth) ([3]; 4 hours, 500 PPM): 2.000
Log (Growth) ([3]; 24 hours, 15.625 PPM): 6.333
Log (Growth) ([3]; 24 hours, 31.25 PPM): 4.667
Log (Growth) ([3]; 24 hours, 62.5 PPM): 5.667
Log (Growth) ([3]; 24 hours, 125 PPM): 1.667
Log (Growth) ([3]; 24 hours, 250 PPM): 0.000
Log (Growth) ([3]; 24 hours, 500 PPM): 0.000
inhibition under anaerobic as opposed to aerobic conditions [4]: preferentially inhibited hydrogen sulfide production under anaerobic conditions
killing of the various microorganism strains [4]: completely killing
